# Measured values: publication PMC10746280, “Bacterial efflux pump modulators prevent bacterial growth in macrophages and under broth conditions that mimic the host environment” (mBio, 2023)
# Experiments:
# S. Typhimurium = assay: Bacterial growth (OD600, CFU/mL) in LPM medium; type: cell-based
# Description: (§1) LPM 5.5 is chemically defined, contains low phosphate and low magnesium, and is buffered to pH 5.5 ([34], [39][–][41]). […] It was further noted that mutant strains lacking acrAB or tolC grow poorly in LPM 5.5 compared to the corresponding wild type (Fig. 5C through F).
# (§2) Fig 5 In LPM pH 5.5, acrAB and tolC are required for growth, and EPM analogs inhibit growth. (A and B) Optical density at 600 nm (OD600) and CFU per milliliter of S. Typhimurium in LPM 5.5 (at pH 5.5) or LPM 7 (at pH 7.0) in the presence of CU032. (C through F) OD600 in LPM 5.5 of (C and E) S. Typhimurium ΔacrAB mutant and wild-type strains, and (D and F) E. coli ΔtolC mutant and wild-type strains with (C, D) CU032 or (E and F) EPM35. Mean and SEM of three biological replicates are shown for A–F. The wild-type and mutant strain controls are the same for C and E and for D and F.
# Bacteria were grown in LB at 37°C ([76], [77]), unless otherwise stated. Cation-adjusted MHB was purchased from Sigma-Aldrich (90922). LPM 5.5 medium was made according to the following recipe: 5 mM KCl, 7.5 mM (NH4)2SO4, 0.5 mM K2SO4, 10 mM glucose, 49 µM MgCl2, 337 µM PO4-, 0.05% casamino acids (CAS)-amino acids, 80 mM MES, adjusted to pH to 5.5 with 5 M NaOH, and sterile filtered. Where stated, bacteria were grown with antibiotics: 30 µg/mL streptomycin.
# [1] = system: S. enterica (SL1344 and SA10801); assay: Growth/checkerboard in cation-adjusted Mueller Hinton Broth; type: cell-based; settings: MHB
# Method: as §1
# Overnight cation-adjusted MHB-grown cultures of SL1344 or SA10801 were diluted in MHB or LPM 5.5 to an optical density at 600 nm (OD600) of 0.01 and distributed into polystyrene 96-well flat-bottom plates. EPM analogs were added at concentrations up to 300 µM, near the limit of solubility. The antibiotics ciprofloxacin, doxycycline, and erythromycin were added up to concentrations of 2 µM, 2 µM, and 8 µM, respectively. The final DMSO concentration was at or below 2% in all wells. Plates were grown at 37°C with shaking for 18 h and OD600 was monitored (BioTek Synergy H1, BioTek Eon). Each experiment was performed with biological triplicate or higher as indicated. Percent growth was determined by normalizing to OD600 reads in wells containing no D66 or antibiotic. Checkerboards in LPM 5.5 medium were performed with culture grown overnight in LB and diluted to an OD600 of 0.01 in LPM 5.5 and compounds/antibiotics were added as previously described. MuSyC analysis was pursued as previously described ([44], [45]). […]
# [2] = system: S. Typhimurium ΔacrAB mutant; assay: Growth (OD600) of ΔacrAB mutant in LPM 5.5; type: cell-based
# Description: as §1, §2
# E. coli ΔtolC mutant = assay: Growth (OD600) of ΔtolC mutant in LPM 5.5; type: cell-based
# Description: as §1, §2
# E. coli AcrB = molecular target: T1, E. coli AcrB (Escherichia coli, UniProt P31224); design: method as in PMID 29879224; settings: ITC; previously reported; cited from earlier work
# T1 construct: 4xHis (C); made in house; host or cells: E. coli BL21-Gold (DE3), plasmid derived from pSPORT1
# T1 sequence (P31224 whole entry): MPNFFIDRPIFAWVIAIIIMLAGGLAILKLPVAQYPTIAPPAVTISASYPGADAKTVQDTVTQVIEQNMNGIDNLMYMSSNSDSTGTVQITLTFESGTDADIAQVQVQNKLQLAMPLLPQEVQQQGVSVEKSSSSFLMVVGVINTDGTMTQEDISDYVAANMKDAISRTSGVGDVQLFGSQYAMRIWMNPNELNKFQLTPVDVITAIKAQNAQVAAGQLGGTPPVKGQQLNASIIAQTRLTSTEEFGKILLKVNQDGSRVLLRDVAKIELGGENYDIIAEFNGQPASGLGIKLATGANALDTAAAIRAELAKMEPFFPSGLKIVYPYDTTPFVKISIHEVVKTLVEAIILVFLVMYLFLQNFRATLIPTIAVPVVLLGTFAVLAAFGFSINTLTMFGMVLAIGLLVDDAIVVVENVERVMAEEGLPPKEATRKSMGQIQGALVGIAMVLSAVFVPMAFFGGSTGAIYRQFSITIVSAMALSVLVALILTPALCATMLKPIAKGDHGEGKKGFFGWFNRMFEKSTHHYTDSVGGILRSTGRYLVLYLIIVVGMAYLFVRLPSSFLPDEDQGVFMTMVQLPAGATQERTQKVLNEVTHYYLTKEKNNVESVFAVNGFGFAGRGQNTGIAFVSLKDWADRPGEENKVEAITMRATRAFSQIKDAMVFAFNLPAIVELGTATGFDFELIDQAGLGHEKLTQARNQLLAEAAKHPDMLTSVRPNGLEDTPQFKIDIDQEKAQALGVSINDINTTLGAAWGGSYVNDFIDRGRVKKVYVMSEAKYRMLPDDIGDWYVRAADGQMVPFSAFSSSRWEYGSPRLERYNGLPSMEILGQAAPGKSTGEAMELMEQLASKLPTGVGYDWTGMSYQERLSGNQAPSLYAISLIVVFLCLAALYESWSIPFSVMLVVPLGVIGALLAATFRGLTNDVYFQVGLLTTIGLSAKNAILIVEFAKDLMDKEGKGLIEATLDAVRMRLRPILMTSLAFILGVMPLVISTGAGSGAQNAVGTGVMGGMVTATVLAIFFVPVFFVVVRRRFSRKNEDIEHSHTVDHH
Structure (SMILES),nature of inhibitory activity (CFU per milliliter) (S. Typhimurium; LPM 5.5),growth inhibition in LPM 5.5 (S. Typhimurium; pH 5.5),growth inhibitory activity in LPM at pH 7.0 (S. Typhimurium; pH 7.0),growth inhibition of wild-type bacteria in Mueller Hinton Broth [1],growth inhibition of ΔacrAB mutant compared to DMSO [2],growth inhibition of ΔtolC mutant compared to DMSO (E. coli ΔtolC mutant),KD (E. coli AcrB),∆H (E. coli AcrB),∆S (E. coli AcrB)
NC1CCN(CC(O)COc2ccc(Cl)c(Cl)c2)C1 (centres unmarked) [CU032],"bacteriostatic, not bactericidal",prevented bacterial growth,abolished,did not inhibit the growth,does not strongly inhibit growth,does not strongly inhibit growth,–,–,–
OC(COc1ccc(Cl)c(Cl)c1)CN1CCC(Nc2nccc(C(F)(F)F)n2)CC1 (centres unmarked) [EPM35],–,–,–,–,does not strongly inhibit growth,does not strongly inhibit growth,sub-micromolar range,"−7,663 ± 84 cal/mol",4.2 cal/(mol deg)
